The values below come from US20240254087A1, “SELECTIVE, PARTIAL, AND ARRESTIN-BIASED 5-HT2A AGONISTS WITH UTILITY IN VARIOUS DISORDERS” (Saint Joseph's University, priority 2021, published 2024).

Sequence of 5-HT2B (P41595 whole entry): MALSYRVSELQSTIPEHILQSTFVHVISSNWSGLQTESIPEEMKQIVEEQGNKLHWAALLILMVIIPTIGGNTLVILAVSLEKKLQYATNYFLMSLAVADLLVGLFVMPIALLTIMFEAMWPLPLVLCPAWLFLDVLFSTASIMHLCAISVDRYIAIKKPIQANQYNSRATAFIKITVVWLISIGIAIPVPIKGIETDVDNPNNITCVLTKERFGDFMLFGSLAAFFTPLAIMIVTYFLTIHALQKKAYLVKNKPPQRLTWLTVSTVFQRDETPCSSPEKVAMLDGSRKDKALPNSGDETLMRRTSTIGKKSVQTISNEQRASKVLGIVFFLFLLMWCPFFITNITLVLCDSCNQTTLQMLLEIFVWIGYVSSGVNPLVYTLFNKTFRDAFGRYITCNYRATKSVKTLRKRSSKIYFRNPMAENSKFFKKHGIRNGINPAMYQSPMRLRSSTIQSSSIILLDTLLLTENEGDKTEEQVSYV
T1 sequence (P28223 whole entry): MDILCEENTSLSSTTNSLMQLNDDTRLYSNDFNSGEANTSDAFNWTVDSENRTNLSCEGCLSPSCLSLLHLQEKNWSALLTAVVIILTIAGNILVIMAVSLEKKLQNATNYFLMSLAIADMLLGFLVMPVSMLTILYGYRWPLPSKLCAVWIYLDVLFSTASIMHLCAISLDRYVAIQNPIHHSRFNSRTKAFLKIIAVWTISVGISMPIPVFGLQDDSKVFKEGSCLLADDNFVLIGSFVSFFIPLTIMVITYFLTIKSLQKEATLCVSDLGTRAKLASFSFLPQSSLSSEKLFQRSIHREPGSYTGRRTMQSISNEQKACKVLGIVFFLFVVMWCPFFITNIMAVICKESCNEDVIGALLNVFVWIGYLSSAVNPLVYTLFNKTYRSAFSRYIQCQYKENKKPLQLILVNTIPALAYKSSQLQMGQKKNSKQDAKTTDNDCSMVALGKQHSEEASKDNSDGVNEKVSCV

In one assay the target is T1, 5-HT2A (Homo sapiens, UniProt P28223). Description: cell-based. Further details: expressed in transfected cells; host or cells: HEK293T, transient. Particulars: BRET, mean ± SEM; read-out: 5-HT2A Gq dissociation pEC50 (converted). Here is the method:
(§1) After at least 18-24 hours, transfected cells were plated in poly-lysine coated 96-well white clear bottom cell culture plates in DMEM containing 1% dialyzed FBS at a density of 25-40,000 cells in 200 μL per well and incubated overnight. After approximately 20-24 hours, media was decanted and cells were washed with 60 μL of drug buffer (1×HBSS, 20 mM HEPES, pH 7.4), followed by 60 μL of drug buffer and pre-incubated in a humidified atmosphere at 37° C. before receiving drug stimulation. Drug stimulation was induced by adding 30 μL of a solution of drug (3X) diluted in McCorvy buffer (1×HBSS, 20 mM HEPES, pH 7.4, supplemented with 0.3% BSA fatty acid free, 0.03% ascorbic acid) and plates were incubated at the indicated time and temperature. Fifteen minutes before reading, 10 μL of the RLuc substrate, either coelenterazine h for β-Arrestin recruitment BRET^1 or coelenterazine 400a for Gq dissociation BRET^2 (Prolume/Nanolight, 5 μM final concentration) was addedper well. […] The BRET ratios of fluorescence/luminescence were calculated per well and were plotted as a function of drug concentration using Graphpad Prism 8 (Graphpad Software Inc., San Diego, CA).
(In BRET a luciferase serves as donor, and the signal depends on an acceptor being close.)
For `COc1cc(OC)c(OC)cc1CCNCc1cccc(C)c1C` [(50)], the EC50 is 3.47 nM.

With `COc1cc(OC)c(OC)cc1CCNCc1cccc2c1CCC2` [(51)], the EC50 was 1.7 nM.

Regarding `COc1cc(OC)c(OC)cc1CCNCc1cccc2c1CCCC2` [(52)], the EC50 is 7.59 nM.

On to `COc1cc(OC)c(OC)cc1CCNCc1cccc2cccnc12` [(54)], for which the EC50 is 11.2 nM.

Regarding `COc1cc(OC)c(OC)cc1CCNCc1cccc2cnccc12` [(56)], the EC50 is 26.3 nM.

Turning to `COc1cc(OC)c(OC)cc1CCNCc1ccccc1-c1ccco1` [(58)], the EC50 is 50.1 nM.

The same assay, now with this note: read-out: 5-HT2A Gq Emax (% 5-HT), BRET, mean ± SEM.
What is called Emax is the size of the effect at its maximum, as opposed to the concentration needed. With `COc1cc(OC)c(OC)cc1CCNCc1cccc(C)c1C` [(50)], the Emax was 23.6 ± 1%.

Take `COc1cc(OC)c(OC)cc1CCNCc1cccc2c1CCC2` [(51)]: the Emax turned out to be 41.2 ± 1.9%.

As for `COc1cc(OC)c(OC)cc1CCNCc1cccc2c1CCCC2` [(52)], the maximal response (Emax) is 43.7 ± 1.1%.

With `COc1cc(OC)c(OC)cc1CCNCc1cccc2cccnc12` [(54)], the Emax worked out at 54.3 ± 1.5%.

For `COc1cc(OC)c(OC)cc1CCNCc1cccc2cnccc12` [(56)], the maximum response (Emax) was found to be 64.1 ± 1.5%.

Consider `COc1cc(OC)c(OC)cc1CCNCc1cccc2ncccc12` [(57)], for which the Emax turned out to be 34.2 ± 4%.

As for `COc1cc(OC)c(OC)cc1CCNCc1ccccc1-c1ccco1` [(58)], the Emax was 51.9 ± 2.2%.

As for `COc1cc(OC)c(OC)cc1CCNCc1ccccc1Oc1ccccc1` [(60)], the maximal response (Emax) is 63.3 ± 3.5%.

The next assay deals with T1, 5-HT2A. Description: cell-based. Also on record: expressed in transfected cells; host or cells: HEK293T, transient. The settings on record: BRET, mean ± SEM; read-out: 5-HT2A β-arrestin recruitment pEC50 (converted). Here is the method: as §1
Turning to `COc1cc(OC)c(OC)cc1CCNCc1cccc(C)c1C` [(50)], the EC50 is 5.75 nM.

On to `COc1cc(OC)c(OC)cc1CCNCc1cccc2c1CCC2` [(51)], for which the EC50 is 3.31 nM.

On to `COc1cc(OC)c(OC)cc1CCNCc1cccc2c1CCCC2` [(52)], for which the EC50 was 1.78 nM.

In the case of `COc1cc(OC)c(OC)cc1CCNCc1cccc2cccnc12` [(54)], the EC50 was 8.51 nM.

As to `COc1cc(OC)c(OC)cc1CCNCc1cccc2cnccc12` [(56)], the EC50 was 17.4 nM.

As for `COc1cc(OC)c(OC)cc1CCNCc1ccccc1-c1ccco1` [(58)], the EC50 was 56.2 nM.

Staying with this assay, now noted: read-out: 5-HT2A β-arrestin Emax (% 5-HT), BRET, mean ± SEM.
For the compound `COc1cc(OC)c(OC)cc1CCNCc1cccc(C)c1C` [(50)], the Emax stood at 73.9 ± 5.4%.

In the case of `COc1cc(OC)c(OC)cc1CCNCc1cccc2c1CCC2` [(51)], the Emax was 72.9 ± 4.2%.

`COc1cc(OC)c(OC)cc1CCNCc1cccc2c1CCCC2` [(52)]: the maximal response (Emax) turned out to be 65 ± 4.9%.

Regarding `COc1cc(OC)c(OC)cc1CCNCc1cccc2cccnc12` [(54)], the maximum response (Emax) came out at 100 ± 3.5%.

In the case of `COc1cc(OC)c(OC)cc1CCNCc1cccc2cnccc12` [(56)], the Emax came out at 75.8 ± 8.3%.

With `COc1cc(OC)c(OC)cc1CCNCc1cccc2ncccc12` [(57)], the Emax was found to be 92 ± 8.9%.

Regarding `COc1cc(OC)c(OC)cc1CCNCc1ccccc1-c1ccco1` [(58)], the Emax was 112 ± 6.2%.

For `COc1cc(OC)c(OC)cc1CCNCc1ccccc1Oc1ccccc1` [(60)], the Emax came out at 117 ± 14.6%.

A further assay has as its target 5-HT2B (Homo sapiens, UniProt P41595). The experiment in a line: BRET Gq dissociation, 5-HT2B. The format is cell-based. Further details: expressed in transfected cells; host or cells: HEK293T, transient.
Conditions: not given
Here is the method: After at least 18-24 hours, transfected cells were plated in poly-lysine coated 96-well white clear bottom cell culture plates in DMEM containing 1% dialyzed FBS at a density of 25-40,000 cells in 200 μL per well and incubated overnight. After approximately 20-24 hours, media was decanted and cells were washed with 60 μL of drug buffer (1×HBSS, 20 mM HEPES, pH 7.4), followed by 60 μL of drug buffer and pre-incubated in a humidified atmosphere at 37° C. before receiving drug stimulation. Drug stimulation was induced by adding 30 μL of a solution of drug (3X) diluted in McCorvy buffer (1×HBSS, 20 mM HEPES, pH 7.4, supplemented with 0.3% BSA fatty acid free, 0.03% ascorbic acid) and plates were incubated at the indicated time and temperature. Fifteen minutes before reading, 10 μL of the RLuc substrate, either coelenterazine h for β-Arrestin recruitment BRET^1 or coelenterazine 400a for Gq dissociation BRET^2 (Prolume/Nanolight, 5 μM final concentration) was addedper well. Plates were read for luminescence at 485 nm and fluorescent eYFP emission at 530 nm for BRET^1 and at 400 nm and fluorescent GFP2 emission at 510 nm for BRET2 at 1 second per well using a Mithras LB940 (Berthold). The BRET ratios of fluorescence/luminescence were calculated per well and were plotted as a function of drug concentration using Graphpad Prism 8 (Graphpad Software Inc., San Diego, CA).
As to `COc1cc(OC)c(OC)cc1CCNCc1cccc(C)c1C` [(50)], the “5-HT2B Gq Dissociation (BRET) EMAX ± SEM (%5-HT)” value is reported as “No activity” and the “5-HT2B Gq Dissociation (BRET) pEC50 ± SEM” value is reported as “No activity”.

In the case of `COc1cc(OC)c(OC)cc1CCNCc1cccc2c1CCC2` [(51)], the “5-HT2B Gq Dissociation (BRET) EMAX ± SEM (%5-HT)” value was “No activity” and the “5-HT2B Gq Dissociation (BRET) pEC50 ± SEM” value is “No activity”.

As for `COc1cc(OC)c(OC)cc1CCNCc1cccc2c1CCCC2` [(52)], the “5-HT2B Gq Dissociation (BRET) EMAX ± SEM (%5-HT)” value was “No activity” and the “5-HT2B Gq Dissociation (BRET) pEC50 ± SEM” value is “No activity”.

For the compound `COc1cc(OC)c(OC)cc1CCNCc1cccc2cccnc12` [(54)], the “5-HT2B Gq Dissociation (BRET) EMAX ± SEM (%5-HT)” value is recorded as “No activity” and the “5-HT2B Gq Dissociation (BRET) pEC50 ± SEM” value is given as “No activity”.

Regarding `COc1cc(OC)c(OC)cc1CCNCc1cccc2cnccc12` [(56)], the “5-HT2B Gq Dissociation (BRET) EMAX ± SEM (%5-HT)” value is recorded as “No activity” and the “5-HT2B Gq Dissociation (BRET) pEC50 ± SEM” value is “No activity”.

Consider `COc1cc(OC)c(OC)cc1CCNCc1cccc2ncccc12` [(57)], for which the “5-HT2B Gq Dissociation (BRET) EMAX ± SEM (%5-HT)” value is given as “No activity” and the “5-HT2B Gq Dissociation (BRET) pEC50 ± SEM” value is recorded as “No activity”.

As to `COc1cc(OC)c(OC)cc1CCNCc1ccccc1Oc1ccccc1` [(60)], the “5-HT2B Gq Dissociation (BRET) EMAX ± SEM (%5-HT)” value is given as “No activity” and the “5-HT2B Gq Dissociation (BRET) pEC50 ± SEM” value is recorded as “No activity”.

The assay is the same for the next values; noted with them: read-out: 5-HT2B Gq Dissociation (BRET) EMAX ± SEM (%5-HT).
`COc1cc(OC)c(OC)cc1CCNCc1ccccc1-c1ccco1` [(58)]: the Emax turned out to be 37.6 ± 2%.

The assay is the same for the next values; noted with them: read-out: 5-HT2B Gq Dissociation (BRET) pEC50 ± SEM (converted).
Take `COc1cc(OC)c(OC)cc1CCNCc1ccccc1-c1ccco1` [(58)]: the EC50 was 3.09 nM.

Another assay concerns the target T2, 5-HT2C (Homo sapiens, UniProt P28335).
T2 sequence (P28335 33-458): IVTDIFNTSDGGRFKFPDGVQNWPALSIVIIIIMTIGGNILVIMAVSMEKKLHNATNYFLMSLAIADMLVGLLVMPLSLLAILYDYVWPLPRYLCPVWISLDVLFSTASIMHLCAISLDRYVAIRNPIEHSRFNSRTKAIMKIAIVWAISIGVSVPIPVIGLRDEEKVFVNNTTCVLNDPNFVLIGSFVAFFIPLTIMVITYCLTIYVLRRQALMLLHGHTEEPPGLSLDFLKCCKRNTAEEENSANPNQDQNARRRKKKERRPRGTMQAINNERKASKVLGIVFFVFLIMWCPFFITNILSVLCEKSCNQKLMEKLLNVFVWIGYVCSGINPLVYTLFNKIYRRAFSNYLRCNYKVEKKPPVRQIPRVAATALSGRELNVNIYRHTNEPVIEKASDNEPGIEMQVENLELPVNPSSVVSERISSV
The experiment in a line: BRET Gq dissociation, 5-HT2C. The format is cell-based. Further details: expressed in transfected cells; host or cells: HEK293T, transient. Particulars: read-out: 5-HT2C Gq Dissociation (BRET) EMAX ± SEM (%5-HT). Here is the method: as §1
In the case of `COc1cc(OC)c(OC)cc1CCNCc1cccc(C)c1C` [(50)], the Emax was 30.4 ± 2.7%.

On to `COc1cc(OC)c(OC)cc1CCNCc1cccc2c1CCC2` [(51)], for which the maximal effect (Emax) is 52.5 ± 5.2%.

`COc1cc(OC)c(OC)cc1CCNCc1cccc2c1CCCC2` [(52)]: the Emax turned out to be 43.6 ± 3.8%.

`COc1cc(OC)c(OC)cc1CCNCc1cccc2cccnc12` [(54)]: the Emax worked out at 90.5 ± 3.1%.

For `COc1cc(OC)c(OC)cc1CCNCc1cccc2cnccc12` [(56)], the maximum response (Emax) turned out to be 80.9 ± 3.4%.

`COc1cc(OC)c(OC)cc1CCNCc1cccc2ncccc12` [(57)]: the Emax was determined as 77.6 ± 3.2%.

Turning to `COc1cc(OC)c(OC)cc1CCNCc1ccccc1-c1ccco1` [(58)], the Emax is 94 ± 4%.

In the case of `COc1cc(OC)c(OC)cc1CCNCc1ccccc1Oc1ccccc1` [(60)], the maximal effect (Emax) came out at 113 ± 11.6%.

Still in this assay, the particulars now being: read-out: 5-HT2C Gq Dissociation (BRET) pEC50 ± SEM (converted).
With `COc1cc(OC)c(OC)cc1CCNCc1cccc(C)c1C` [(50)], the EC50 is 1.55 nM.

With `COc1cc(OC)c(OC)cc1CCNCc1cccc2c1CCC2` [(51)], the EC50 is 93.3 nM.

As for `COc1cc(OC)c(OC)cc1CCNCc1cccc2c1CCCC2` [(52)], the EC50 is 34.7 nM.

Turning to `COc1cc(OC)c(OC)cc1CCNCc1cccc2cccnc12` [(54)], the EC50 was 14.8 nM.

On to `COc1cc(OC)c(OC)cc1CCNCc1cccc2cnccc12` [(56)], for which the EC50 was 126 nM.

`COc1cc(OC)c(OC)cc1CCNCc1cccc2ncccc12` [(57)]: the EC50 is 200 nM.

With `COc1cc(OC)c(OC)cc1CCNCc1ccccc1-c1ccco1` [(58)], the EC50 is 14.1 nM.

With `COc1cc(OC)c(OC)cc1CCNCc1ccccc1Oc1ccccc1` [(60)], the EC50 was 1700 nM.
